Assay results taken from patent US20240052316A1, “STEM CELL PRIMING COMPOSITION AND PRIMED STEM CELL” (SCM LIFESCIENCE CO., LTD., priority 2020, published 2024).

Test system: IDO and TSG6
Experiment: qRT-PCR of IDO and TSG6 expression in primed mesenchymal stem cells (joint statements)
Format: cell-based
Details: 24 hours; for expression of IDO and TSG6 compared to untreated control group 0: Table 1 groups, FIG. 4; for lowest effective concentration capable of inducing significantly increased expression of both TSG6 and IDO: tested 5, 10, 20 ng/ml (TNF-α, IFN-γ) and 10, 20, 40 ng/ml (IFN-α), FIGS. 1-3
Procedure: In a 37° C. and 5% CO2 incubator, mesenchymal stem cells in a storage state (LN2 tank storage) were thawed and cultured, and at this time, the cells were cultured in a medium (DMEM, alpha-MEM) containing 10% FBS or 4% hPL until proliferated to a cell confluence of about 80%. The cultured mesenchymal stem cells were seeded in a 100 mm dish, and treated with candidate substances for reinforcing the functions of the mesenchymal stem cells for 24 hours, and then the concentrations of primary candidate substances for reinforcing the functions were set.
TNF-α and IFN-γIFN-α were selected as the primary candidate substances, and in order to confirm the lowest effective concentration capable of increasing the expression of TNFα-stimulated gene-6 (TSG6) and indoleamine 2,3-dioxygenase (IDO) to confirm the reinforced functions, the stem cells were treated with 5, 10, and 20 ng/ml of TNF-α, 5, 10, and 20 ng/ml of IFN-γ, and 10, 20, and 40 ng/ml of IFN-α, respectively, and changes in expression of TSG6 and IDO were confirmed.
The IDO was known as an immunomodulatory factor that inhibited the proliferation of immune cells such as T cells by converting tryptophan, which was essential for T cell proliferation, into kynurenine, and the TSG6 was known as an anti-inflammatory regulator secreted by mesenchymal stem cells. After culturing the stem cells, total RNA was isolated using TRIzol (Invitrogen), and then cDNA was synthesized from total RNA using PrimeScriptTMRT reagent Kit with gDNA Eraser (TaKaRa), and qRT-PCR was performed. The results of TSG6 and IDO according to the concentration of each candidate substance were illustrated in FIGS. 1, 2 and 3.
Through Example 1, candidate substances and concentration combinations thereof selected to search for more functionally reinforced compositions based on the candidate substances and the lowest effective concentrations confirmed to induce the reinforced functions of stem cells were set as shown in Table 1. Mesenchymal stem cells were treated with the candidate combinations described in Table 1 below for 24 hours, and the stem cells were cultured as in Example 1, and then total RNA was isolated using TRIzol (Invitrogen). Then, qRT-PCR was performed by synthesizing cDNA from total RNA using the PrimeScript™ RT reagent Kit with gDNA Eraser (TaKaRa).
Vitamins were known to improve the proliferative ability of stem cells and maintain the stemness of stem cells when added during a stem cell culture process. Accordingly, various vitamins were treated in the stem cell culture process, and experiments were performed to confirm whether or not vitamins could achieve anti-inflammatory and immune function reinforcing effects of stem cells. Specifically, the stem cells were treated with various types of vitamins shown in Table 2 according to the method described in Example 1, and the results of confirming changes in expression of IDO and TSG6 according to treatment with each candidate substance were illustrated in FIG. 5.

Row | Substance | expression of IDO and TSG6 compared to untreated control group 0 | lowest effective concentration capable of inducing significantly increased expression of both TSG6 and IDO
1 | IFN-α | increased expression of IDO and TSG6 | 20 ng/mL
2 | IFN-γ: cytokine, primary candidate substance for priming stem cells, 10 ng/ml | increased expression of IDO and TSG6 | 10 ng/mL
3 | TNF-α | increased expression of IDO and TSG6 | 10 ng/mL
